“And” between values parts separate entries of the source, which are not always exact repeats. Equal values may be shown once.
Legend:
[1] = test system: Salmonella typhimurium TA98; test: Ames test, TA98
Description: The Salmonella mutagenicity assay was performed by pre-incubating the test compounds for 20 min with Salmonella typhimurium strains TA98 and TA100, with and without metabolic activation (S9 mixture).
After this time 2 mL of top agar was added to the mixture and poured on to a plate containing minimum agar. The plates were incubated at 37 °C for 49 h and the His ± revertant colonies were counted manually and automatically by a colony counter (Colony analyzer CA-11D systems, System science Co.,Ltd.). The influence of metabolic activation was tested by adding 500 μL of 10% S9 mixture. All experiments were performed in duplicate. […] DMSO served as the negative control (100 μL/plate). The mutagenic index (MI, the average number of revertants per plate divided by the average number of revertants per plate from the negative control) was also calculated for each dose. A sample was considered positive when the MI was equal to or greater than 2 for at least one of the tested doses.

[2] = Parallel artificial membrane permeability assay (PAMPA); format: in vitro ADME
Description: Parallel artificial membrane permeability measurements were performed in duplicate with a Corning Gentest Pre-coated PAMPA Plate System according to the standard protocol of Corning Incorporated Life Sciences (Tewksbury).

[3] = test system: H3K9me2 on the β-globin locus; test: ChIP-seq for H3K9me2 in HUDEP-2 cells; format: cell-based, human; conditions: HUDEP-2, 1 μM, 4 days
Description: A total of 0.5–1 × 10^6 cells were cross-linked with 1% formaldehyde for 10 min at room temperature and the reaction was quenched with 250 mM glycine. Cross-linked cells were then lysed with buffer 1 (15 mM Tris-HCl (pH 7.5), 60 mM KCl, 15 mM NaCl, 5 mM MgCl2, 0.1 mM EGTA, 300 mM sucrose, […], 1 mM phenylmethanesulfonyl fluoride (PMSF), 0.5% NP40) and incubated on ice for 10 min. After centrifugation, the pellet was re-suspended in buffer 2 (15 mM Tris-HCl (pH 7.5), 60 mM KCl, 15 mM NaCl, 5 mM MgCl2, 0.1 mM EGTA, 1.2 M sucrose, […], 1 mM PMSF). After centrifugation, the pellet was then re-suspended in MNase buffer (50 mM Tris-HCl (pH 7.5), 1 mM CaCl2, 4 mM MgCl2, 320 mM sucrose, 1 mM PMSF) and digested with 100 U of micrococcal nuclease (Takara) at 37 °C for 15 min. […] The samples were analyzed by qPCR. […] ChIP-seq analysis were analyzed Cutadapt (V1.9.1) for QC, FastQC (V0.10.1) for QC assessment, Bowtie (V2.1.0) for mapping, strand cross-correlation (SCC) for ChIP quality assessment, MACS2 for peak calling, and R package ChIPpeakAnno for Peak annotated.

With `Cc1c(C(=O)NC(CCC2CC2)C(=O)Nc2ccc(C#N)cc2)[nH]c2c1C(=O)CC(C)(C)C2` (stereo not drawn) [RK-701] the Number of reverants/plate ([1]; TA98, + S9, frameshift mutation, 4.88 μg/plate) was 28, the Number of reverants/plate ([1]; TA98, + S9, frameshift mutation, 19.5 μg/plate) was 29 and 28 and the Number of reverants/plate ([1]; TA98, + S9, frameshift mutation, 78.1 μg/plate) was 31 and 30. For the same compound, the Number of reverants/plate ([1]; TA98, + S9, frameshift mutation, 313 μg/plate) was 28, the Number of reverants/plate ([1]; TA98, + S9, frameshift mutation, 1250* μg/plate) was 32 and 28 and the Number of reverants/plate ([1]; TA98, + S9, frameshift mutation, 2500* μg/plate) was 28. For the same compound, the Number of reverants/plate ([1]; TA98, + S9, frameshift mutation, 5000* μg/plate) was 28 and 23, the Number of revertants/plate ([1]; TA98, +S9, 4.88 μg/plate) was 28 and the Number of revertants/plate ([1]; TA98, +S9, 19.5 μg/plate) was 29. The Number of revertants/plate ([1]; TA98, +S9, 78.1 μg/plate) was 31, the Number of revertants/plate ([1]; TA98, +S9, 313 μg/plate) was 28 and the Number of revertants/plate ([1]; TA98, +S9, 1250 μg/plate, insoluble material) was 30. For the same compound, the Number of revertants/plate ([1]; TA98, +S9, 2500 μg/plate, insoluble material) was 28, the Number of revertants/plate ([1]; TA98, +S9, 5000 μg/plate, insoluble material) was 26 and the Number of reverants/plate ([1]; TA98, - S9, frameshift mutation, 4.88 μg/plate) was 13 and 20. For the same compound, the Number of reverants/plate ([1]; TA98, - S9, frameshift mutation, 19.5 μg/plate) was 12 and 13, the Number of reverants/plate ([1]; TA98, - S9, frameshift mutation, 78.1 μg/plate) was 14 and 20 and the Number of reverants/plate ([1]; TA98, - S9, frameshift mutation, 313 μg/plate) was 14 and 12. For the same compound, the Number of reverants/plate ([1]; TA98, - S9, frameshift mutation, 1250* μg/plate) was 11 and 12, the Number of reverants/plate ([1]; TA98, - S9, frameshift mutation, 2500* μg/plate) was 11 and 12 and the Number of reverants/plate ([1]; TA98, - S9, frameshift mutation, 5000* μg/plate) was 13 and 16. For the same compound, the Number of revertants/plate ([1]; TA98, -S9, 4.88 μg/plate) was 17, the Number of revertants/plate ([1]; TA98, -S9, 19.5 μg/plate) was 13 and the Number of revertants/plate ([1]; TA98, -S9, 78.1 μg/plate) was 17. The Number of revertants/plate ([1]; TA98, -S9, 313 μg/plate) was 13, the Number of revertants/plate ([1]; TA98, -S9, 1250 μg/plate, insoluble material) was 12 and the Number of revertants/plate ([1]; TA98, -S9, 2500 μg/plate, insoluble material) was 12. For the same compound, the Number of revertants/plate ([1]; TA98, -S9, 5000 μg/plate, insoluble material) was 15, the mutagenicity ([1]; TA98, regardless of metabolic activation) was “no mutagenicity” and the “cell permeability (PAMPA and Caco-2)” value [2] was “decent cell permeability”. The Papp ([2]; PAMPA) was 3.08 ± 1.47 ×10⁻⁶ cm/s, the PAMPA ([2]; replicate values) was 2.736e-6 and 5.393e-6 and 2.8861e-6 and 1.3122e-6 and the “occupancies of H3K9me2 throughout the β-globin gene locus” value [3] was “reduced”.

— article PMC9837035 (Nature Communications, 2023)
